Test results as given in patent publication US9938286B2, “Nalmefene salts as medicaments for reducing alcohol consumption or for preventing excessive alcohol consumption” (H. Lundbeck A/S, priority 2013, dated 2018).
Structures can show the parent of a compound that is named as a salt. Where two headings read alike, the source gives them in different places.

How the values were obtained:
[1] = Attempt to form hydrates: precipitation from pure water, XRPD of precipitate; assay type: physicochemical; details: precipitated from pure water at room temperature and atmospheric pressure
Source text: A “hydrate” indicates a crystalline material with water (H2O) molecules incorporated into the crystal lattice. More particularly, a “non-hydrate forming salt” of nalmefene indicates a salt of which any isolated crystal form contains less than 25 mol % water, such as less than 20 mol % water, such as less than 15 mol % water, such as less than 10 mol % water, such as less than 5 mol % water, such as less than 4, 3, 2 or 1 mol % water, such as substantially no water in the crystal lattice of said salt.

[2] = Thermodynamic aqueous solubility in pure water (shaking, HPLC); details: for pH: aqueous solubility sample in pure water; for pH / Solubility (mg base/mL), aqueous: 23° C. ± 2°; for Solubility (mg base/mL), aqueous: pure water, normalised to nalmefene free base
[3] = Solubility in organic solvents (HPLC); details: 23° C. ± 2°
Experimental: The suspensions were heated with the purpose of obtaining complete dissolution and then cooled to room temperature and left for equilibrium to be attained. The clear supernatant was diluted and assayed by HPLC. All precipitates were analyzed by XRPD.
For comparison, the solvate formation from nalmefene hydrochloride was also investigated.

[4] = Attempt to form solvates: precipitation from organic solvents, XRPD of precipitate; assay type: physicochemical; details: for solvate formation from EtOH: precipitated from EtOH; for solvate formation from the organic solvents assessed: EtOH, MeOH, IPA, EtOAc, acetone, ACN, THF, MIBK, toluene and 2.2.2-trifluoroethanol, room temperature, atmospheric pressure
Source text: A “solvate” indicates a crystalline material with solvent molecules incorporated into the crystal lattice. In the present context, when referring to “solvents” these are limited to non-aqueous solvents, preferably organic solvents. Solvents assessed for solvate formation according to the invention includes the following: ethanol (EtOH), methanol (MeOH), isopropanol (IPA), ethyl acetate (EtOAc), acetone, acetonitrile (ACN), tetrahydrofurane (THF), methyl isobutyl ketone (MIBK), toluene and 2,2,2-trifluoroethanol.
The clear supernatant was diluted and assayed by HPLC. All precipitates were analyzed by XRPD.

[5] = Dynamic vapour sorption (DVS), water absorption; assay type: physicochemical
Experimental: Dynamic vapour sorption experiments were performed using a SMS DVS advantage 01 changing the relative humidity from 30-40% RH up to 90-95% RH in steps of 10%RH.

[6] = precipitated/crystallized from ethanol, Brittain 1996, cited from earlier work
[7] = Brittain 1996, WO 2010/063292, cited from earlier work
μ receptor = μ receptor (Homo sapiens, UniProt P35372); details: in vitro studies; cited from earlier work
δ receptor = δ receptor (Homo sapiens, UniProt P41143); details: in vitro studies; cited from earlier work
κ receptor = κ receptor (Homo sapiens, UniProt P41145); details: in vitro studies; cited from earlier work
Sequence of κ receptor (P41145 whole entry): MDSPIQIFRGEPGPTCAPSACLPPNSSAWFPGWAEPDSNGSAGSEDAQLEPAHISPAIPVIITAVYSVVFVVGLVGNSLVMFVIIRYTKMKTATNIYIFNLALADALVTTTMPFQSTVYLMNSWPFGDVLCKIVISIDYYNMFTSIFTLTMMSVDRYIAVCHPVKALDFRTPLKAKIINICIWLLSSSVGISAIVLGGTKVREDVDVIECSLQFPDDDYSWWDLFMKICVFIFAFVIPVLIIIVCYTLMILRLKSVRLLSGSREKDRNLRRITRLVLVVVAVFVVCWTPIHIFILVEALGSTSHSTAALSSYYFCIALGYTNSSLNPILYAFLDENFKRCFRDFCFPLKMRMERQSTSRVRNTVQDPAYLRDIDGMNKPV

Sequence of δ receptor (P41143 whole entry): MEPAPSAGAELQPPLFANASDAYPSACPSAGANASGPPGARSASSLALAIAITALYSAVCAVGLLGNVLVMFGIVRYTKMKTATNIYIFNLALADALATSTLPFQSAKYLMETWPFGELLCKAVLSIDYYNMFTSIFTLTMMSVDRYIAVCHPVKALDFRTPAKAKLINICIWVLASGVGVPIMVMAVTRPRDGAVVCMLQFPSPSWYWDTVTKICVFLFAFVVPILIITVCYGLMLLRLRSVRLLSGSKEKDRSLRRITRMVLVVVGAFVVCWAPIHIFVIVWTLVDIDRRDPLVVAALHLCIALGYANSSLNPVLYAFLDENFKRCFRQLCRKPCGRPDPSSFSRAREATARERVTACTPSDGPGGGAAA
Sequence of μ receptor (P35372 whole entry): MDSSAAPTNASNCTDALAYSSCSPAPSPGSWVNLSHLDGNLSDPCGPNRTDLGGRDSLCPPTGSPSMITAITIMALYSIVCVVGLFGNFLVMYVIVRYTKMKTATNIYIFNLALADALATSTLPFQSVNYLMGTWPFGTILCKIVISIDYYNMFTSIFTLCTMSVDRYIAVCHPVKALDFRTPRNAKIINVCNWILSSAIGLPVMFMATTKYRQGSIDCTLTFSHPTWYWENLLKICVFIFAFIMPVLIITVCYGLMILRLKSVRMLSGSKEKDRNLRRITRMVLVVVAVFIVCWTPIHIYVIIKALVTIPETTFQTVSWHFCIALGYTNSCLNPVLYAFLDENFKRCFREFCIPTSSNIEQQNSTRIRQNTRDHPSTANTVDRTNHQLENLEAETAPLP

Q: Which hydrate formation [1] does the source give for O=C(O)c1ccccc1O [Salicylate] here?
A: Its hydrate formation is “not to form hydrates”.

Q: What about the pH [2] of the same molecule?
A: Its pH is 7.14.

Q: What about the “Solubility (mg base/mL), aqueous” value [2] of the same molecule?
A: The value was 3.0 mg base/mL.

Q: And the “Solubility (mg base/mL), aqueous” value ([2]; listed as salicylate salt)?
A: The value was 3 mg base/mL.

Q: And the “Solubility in 2,2,2-trifluoro-EtOH” value ([3]; 2,2,2-trifluoroethanol, * = precipitated as solvate)?
A: The value was 120 mg base/mL.

Q: And the “Solubility in ACN” value ([3]; ACN)?
A: Its value is 8.2 mg base/mL.

Q: What about the “Solubility in EtOAc” value ([3]; EtOAc) of the same molecule?
A: The value was 2.0 mg base/mL.

Q: What about the “Solubility in EtOH” value ([3]; EtOH, * = precipitated as solvate) of the same molecule?
A: The value was 19 mg base/mL.

Q: And the “Solubility in IPA” value ([3]; IPA, * = precipitated as solvate)?
A: Its value is 0.5* mg base/mL.

Q: What about the “Solubility in MIBK” value ([3]; MIBK) of the same molecule?
A: The value was 2.9 mg base/mL.

Q: What about the “Solubility in MeOH” value ([3]; MeOH, * = precipitated as solvate) of the same molecule?
A: The value was 91 mg base/mL.

Q: And the “Solubility in THF” value ([3]; THF)?
A: Its value is 35 mg base/mL.

Q: What about the Solubility in acetone ([3]; acetone) of the same molecule?
A: The Solubility in acetone was 9.7 mg base/mL.

Q: What about the “solvate formation from IPA” value ([4]; precipitated from IPA) of the same molecule?
A: The value was “formed solvate”.

Q: And the “% abs. at 90% RH (water absorption determined by DVS)” value (“% abs. at 90% RH” below) [5]?
A: The value was 0.4%.

Q: With C=C1CC[C@@]2(O)[C@H]3Cc4ccc(O)c5c4[C@@]2(CCN3CC2CC2)[C@H]1O5.O=C(O)CC(=O)O as the molecule, how does the hydrate formation [1] read?
A: The hydrate formation was “not to form hydrates”.

Q: And the “solvate formation from MeOH” value ([4]; precipitated from MeOH)?
A: The value was “formed solvate”.

Q: What about the “% abs. at 90% RH” value [5] of the same molecule?
A: Its value is 0.35%.

Q: For C1=Cc2cccc(OC[C@H]3CNCCO3)c2C1.O=S(=O)(O)c1ccccc1 [Benzene sulfonate], which hydrate formation [1] is on record?
A: Its hydrate formation is “not to form hydrates”.

Q: And the pH [2]?
A: Its pH is 3.12.

Q: And the “solvate formation from EtOH” value [4]?
A: The value was “solvate”.

Q: What about the “solvate formation from EtOH” value ([4]; listed as benzene sulfonate salt) of the same molecule?
A: Its value is “formed solvate”.

Q: And the “solvate formation from THF” value ([4]; precipitated from THF)?
A: Its value is “formed solvate”.

Q: And the “% abs. at 90% RH” value [5]?
A: The value was <0.2%.

Q: For C=C1CC[C@@]2(O)[C@H]3Cc4ccc(O)c5c4[C@@]2(CCN3CC2CC2)[C@H]1O5 [nalmefene hydrochloride], which “aqueous solubility of the known hydrochloride salt” value ([2]; unpublished data) is on record?
A: The value was 109 mg base/mL.

Q: What about the “solvate formation from ethanol (literature)” value [6] of the same molecule?
A: Its value is “form solvate”.

Q: What about the “solvate formation from ethanol (literature)” value ([6]; listed as Nalmefene hydrochloride) of the same molecule?
A: The value was “ethanol solvate”.

Q: What about the “solvate formation from the organic solvents assessed” value ([4]; listed as hydrochloride salt) of the same molecule?
A: The value was “formed solvate from all the organic solvents”.

Q: What about the “hydrate formation / thermodynamically stable form (literature)” value ([7]; listed as HCl salt of nalmefene) of the same molecule?
A: The value was “only thermodynamically stable in hydrated or solvated form”.

Q: What about the “hydrate formation / thermodynamically stable form (literature)” value ([7]; listed as nalmefene hydrochloride salt) of the same molecule?
A: The value was “hydrate-forming salt”.

Q: Which hydrate formation [1] does the source give for C=C1CC[C@@]2(O)[C@H]3Cc4ccc(O)c5c4[C@@]2(CCN3CC2CC2)[C@H]1O5.O=C(O)CCCCC(=O)O here?
A: The hydrate formation was “not to form hydrates”.

Q: What about the “solvate formation from the organic solvents assessed” value [4] of the same molecule?
A: Its value is “No solvates were formed”.

Q: What about the “% abs. at 90% RH” value [5] of the same molecule?
A: Its value is 0.35%.

Q: For C=C1CC[C@@]2(O)[C@H]3Cc4ccc(O)c5c4[C@@]2(CCN3CC2CC2)[C@H]1O5.O=C(O)/C=C\C(=O)O [Hydrogen maleate], which hydrate formation [1] is on record?
A: The hydrate formation was “not to form hydrates”.

Q: What about the “solvate formation from the organic solvents assessed” value [4] of the same molecule?
A: Its value is “No solvates were formed”.

Q: What about the “% abs. at 90% RH” value [5] of the same molecule?
A: Its value is 0.2%.

Q: For L-lactate, which hydrate formation [1] is on record?
A: Its hydrate formation is “corresponds to a monohydrate”.

Q: What about the “solvate formation from the organic solvents assessed” value [4] of the same molecule?
A: Its value is “No solvates were formed”.

Q: And the “% abs. at 90% RH” value [5]?
A: Its value is 1.2%.

Q: Which results are given for C=C1CC[C@@]2(O)[C@H]3Cc4ccc(O)c5c4[C@@]2(CCN3CC2CC2)[C@H]1O5 [nalmefene, 17-(cyclopropylmethyl)-4,5-alpha-epoxy-6-methylenemorphinan-3,14-diol]?
A: activity at the μ receptor (μ receptor): antagonist activity; activity at the δ receptor (δ receptor): antagonist activity; activity at the κ receptor (κ receptor): partial agonist activity

Q: With C=C1CC[C@@]2(O)[C@H]3Cc4ccc(O)c5c4[C@@]2(CCN3CC2CC2)[C@H]1O5.O=C(O)/C=C/C(=O)O as the molecule, how does the hydrate formation [1] read?
A: Its hydrate formation is “not to form hydrates”.

Q: What about the “solvate formation from 2,2,2-trifluoroethanol” value ([4]; precipitated from 2,2,2-trifluoroethanol) of the same molecule?
A: Its value is “formed solvate”.

Q: And the “% abs. at 90% RH” value [5]?
A: The value was 0.6%.
